Measurements reported in patent US20020028836A1, “Potassium channel openers” (priority 2000, published 2002).
Like-named read-outs stand apart in the source and are kept apart here.

Legend:
[1] = tested on: tissue strips obtained from Landrace pig bladders; assay: Functional potassium channel opening activity in isolated bladder strips (field-stimulated twitch); settings: for Index: ED50 for P1075 divided by ED50 for the test agonist in a given tissue, averaged; for EC50: amount of agent necessary to cause 50% of the agent's maximal response, read-out: ED50 (the source's name); for Efficacy (% P1075) / Emax: maximal efficacy relative to P1075, field stimulation 0.05 Hz, 0.5 ms, 20 volts
Procedure: Compounds were evaluated for functional potassium channel opening activity using tissue strips obtained from Landrace pig bladders.
Landrace pig bladders were obtained from female Landrace pigs of 9-30 kg. Landrace pigs were euthanized with an intraperitoneal injection of pentobarbital solution, Somlethal®, J. A. Webster Inc., Sterling, Mass. The entire bladder was removed and immediately placed into Krebs Ringer bicarbonate solution (composition, mM: NaCl, 120; NaHCO3, 20; dextrose, 11; KCl, 4.7; CaCl2, 2.5; MgSO4, 1.5; KH2PO4, 1.2; K2EDTA, 0.01, equilibrated with 5% CO2/95% O2pH 7.4 at 37° C.). Propranolol (0.004 mM) was included in all of the assays to block β-adrenoceptors. The trigonal and dome portions were discarded. Strips 3-5 mm wide and 20 mm long were prepared from the remaining tissue cut in a circular fashion. The mucosal layer was removed. One end was fixed to a stationary glass rod and the other to a Grass FT03 transducer at a basal preload of 1.0 gram. Two parallel platinum electrodes were included in the stationary glass rod to provide field stimulation of 0.05 Hz, 0.5 milli-seconds at 20 volts. This low frequency stimulation produced a stable twitch response of 100-500 centigrams. Tissues were allowed to equilibrate for at least 60 minutes and primed with 80 mM KCl. A control concentration response curve (cumulative) was generated for each tissue using the potassium channel opener P1075 as the control agonist. […] After a 60 minute rinsing period, a concentration response curve (cumulative) was generated for the test agonist in the same fashion as that used for the control agonist P1075. The maximal efficacy of each compound (expressed as % relative to P1075) is reported. The amount of agent necessary to cause 50% of the agent's maximal response (ED50) was calculated using “ALLFIT” (DeLean et al., Am. J. Physiol., 235, E97 (1980)), hereby incorporated by reference. Agonist potencies were also expressed as an index relative to P1075. The index was calculated by dividing the ED50 for P1075 by the ED50 for the test agonist in a given tissue. Each tissue was used for only one test agonist, and the indices obtained from each tissue were averaged to provide an average index of potency.

[2] = tested on: primary cultured guinea-pig urinary bladder (GPB) cells; assay: Membrane hyperpolarization (MHP) assay, DiBAC(4)3 / FLIPR; type: cell-based; settings: for EC50: concentration that elicits 50% of the maximal response for the test sample; for Maximal Response (% P1075) / Emax: maximal steady-state hyperpolarization, normalized to response with 10 μM P1075 (100%)
Procedure: Compounds were evaluated for potassium channel opening activity using primary cultured guinea-pig urinary bladder (GPB) cells.
For the preparation of urinary bladder smooth muscle cells, urinary bladders were removed from male guinea-pigs (Hartley, Charles River, Wilmington, Mass.) weighing 300-400 g and placed in ice-cold Ca^2+-free Krebs solution (Composition, mM: KCl, 2.7; KH2PO4, 1.5; NaCl, 75; Na2HPO4, 9.6; Na2HPO4.7H2O, 8; MgSO4, 2; glucose, 5; HEPES, 10; pH 7.4). Cells were isolated by enzymatic dissociation as previously described with minor modifications (Klockner, U. and Isenberg, G., Pflugers Arch. (1985), 405, 329-339), hereby incorporated by reference. The bladder was cut into small sections and incubated in 5 mL of the Kreb's solution containing I mg/mL collagenase (Sigma, St. Louis, Mo.) and 0.2 mg/mL pronase (Calbiochem, La Jolla, Calif.) with continuous stirring in a cell incubator for 30 minutes. The mixture was then centrifuged at 1300×g for 5 minutes, and the pellet resuspended in Dulbecco's PBS (GIBCO, Gaithersburg, Md.) and recentrifuged to remove residual enzyme. The cell pellet was resuspended in 5 mL growth media (composition: Dulbecco's modified Eagle's medium supplemented with 10% fetal bovine serum, 100 units/mL penicillin, 100 units/mL streptomycin and […] amphotericin B) and further dissociated by pipetting the suspension through a flame-polished Pasteur pipette and passing it through a polypropylene mesh membrane (Spectrum, Houston, Tex.). The cell density was adjusted to 100,000 cells/mL by resuspension in growth media. Cells were plated in clear-bottomed black 96-well plates (Packard) for membrane potential studies at a density of 20,000 cells/well and maintained in a cell incubator with 90% air: 10% CO2 until confluent. Cells were confirmed to be of smooth muscle type by cytoskeletal staining using a monoclonal mouse anti human-α-smooth muscle actin (Biomeda, Foster City, Calif.).
Functional activity at potassium channels was measured by evaluating changes in membrane potential using the bis-oxonol dye DiBAC(4) (Molecular Probes) in a 96-well cell-based kinetic assay system, Fluorescent Imaging Plate Reader (FLIPR) (K. S. Schroeder et al., J. Biomed. Screen., v. 1 pp. 75-81 (1996)), hereby incorporated by reference. DiBAC(4)3 is an anionic potentiometric probe which partitions between cells and extracellular solution in a membrane potential-dependent manner. With increasing membrane potential (for example, K^+ depolarization), the probe further partitions into the cell; this is measured as an increase in fluorescence due to dye interaction with intracellular lipids and proteins. Conversely, decreasing membrane potential (hyperpolarization by potassium channel openers) evokes a decrease in fluorescence.
Confluent guinea-pig urinary bladder cells cultured in black clear-bottomed 96-well plates were rinsed twice with […] assay buffer (composition, mM: HEPES, 20; NaCl, 120; KCl, 2; CaCl2, 2; MgCl2, 1; glucose, 5; pH 7.4 at 25° C.) containing 5 μM DiBAC(4)3 and incubated with […] of the buffer in a cell incubator for 30 minutes at 37° C. to ensure dye distribution across the membrane. After recording the baseline fluorescence for 5 minutes, the reference or test compounds, prepared at 10 times the concentration in the assay buffer, were added directly to the wells. Changes in fluorescence were monitored for an additional 25 minutes. Hyperpolarization responses were corrected for any background noise and were normalized to the response observed with 10 μM of the reference compound P1075 (assigned as 100%), a potent opener of smooth muscle KATP channels (Quast et al., Mol. Pharmacol., v. 43 pp. 474-481 (1993)), hereby incorporated by reference.
Routinely, five concentrations of P1075 or test compounds (log or half-log dilutions) were evaluated and the maximal steady-state hyperpolarization values (expressed as % relative to P1075) plotted as a function of concentration. […]

| EC50 [1] | EC50 [2] | Structure (SMILES) | Index [1] | Maximal Response (% P1075) [2] | Emax ([1]; Sus scrofa) | Emax ([2]; Cavia porcellus) | further results |
| --- | --- | --- | --- | --- | --- | --- | --- |
| 12 µM | 650 nM | Cc1ccc(C(=O)NC(NC(=NC#N)Nc2cccnc2)C(C)(C)C)cc1 (single isomer, unassigned; (+)) [Example 58, (+) N-(1-{[(cyanoimino)(3-pyridinylamino)methyl]amino}-2,2-dimethylpropyl)-4-methylbenzamide] | 0.008 | 87 % P1075 |  |  | Efficacy (% P1075) [1]: 59 % P1075 |
| 7.6 µM | 520 nM | CCC(CC)(CCC#N)C(NC(=O)c1ccc(Cl)cc1)NC(=NC#N)Nc1cccnc1 (single isomer, unassigned; (+)) [Example 87, (+) 4-chloro-N-(4-cyano-1-{[(cyanoimino)(3-pyridinylamino)methyl]amino}-2,2-diethylbutyl)benzamide] | 0.02 | 85 % P1075 |  |  | Efficacy (% P1075) [1]: 67 % P1075 |
| 10 µM | 220 nM | CC1=C(CC(NC(=O)c2ccc(Cl)cc2)NC(=NC#N)Nc2cccnc2)C(C)(C)CCC1 (single isomer, unassigned; (+)) [Example 88, (+) 4-chloro-N-[1-{[(cyanoimino)(3-pyridinylamino)methyl]amino}-2-(2,6,6-trimethyl-1-cyclohexen-1-yl)ethyl]benzamide] | 0.074 | 87 % P1075 | 36% |  |  |
| 14 µM | 4600 nM | Cc1ccc(C(=O)NC(NC(=NC#N)Nc2cccnc2)C(C)(C)C)cc1 (single isomer, unassigned; (-)) [Example 57, (−) N-(1-{[(cyanoimino)(3-pyridinylamino)methyl]amino}-2,2-dimethylpropyl)-4-methylbenzamide] | 0.007 | 80 % P1075 |  |  | Efficacy (% P1075) [1]: 85 % P1075 |
| 30 µM | 86 nM | CCC(CC)(CCC#N)C(NC(=O)c1ccc(Cl)cc1)NC(=NC#N)Nc1cccnc1 (single isomer, unassigned; (-)) [Example 86, (−) 4-chloro-N-(4-cyano-1-{[(cyanoimino)(3-pyridinylamino)methyl]amino}-2,2-diethylbutyl)benzamide] | 0.01 | 83 % P1075 |  |  | Efficacy (% P1075) [1]: 19 % P1075 |
|  |  | N#CN=C(Nc1cccnc1)NC(NC(=O)c1ccc(Cl)cc1)C(Cl)(Cl)Cl (stereo not drawn) [Example 45, 4-chloro-N-(2,2,2-trichloro-1-{[(cyanoimino)(3-pyridinylamino)methyl]amino}ethyl)benzamide] |  |  |  | 92% | EC50 ([2]; Cavia porcellus): 40 nM |
|  | 130 nM | CCC(CC)(CCC#N)C(NC(=O)c1ccc(Cl)cc1)NC(=NC#N)Nc1cccnc1 (stereo not drawn) [Example 65, 4-chloro-N-(4-cyano-1-{[(cyanoimino)(3-pyridinylamino)methyl]amino}-2,2-diethylbutyl)benzamide] |  |  |  | 89% |  |
|  | 82 nM | CC1=C(CC(NC(=O)c2ccc(Cl)cc2)NC(=NC#N)Nc2cccnc2)C(C)(C)CCC1 (stereo not drawn) [Example 66, 4-chloro-N-[1-{[(cyanoimino)(3-pyridinylamino)methyl]amino}-2-(2,6,6-trimethyl-1-cyclohexen-1-yl)ethyl]benzamide] |  |  |  | 79% |  |
|  |  | CCCCC(C)(C)C(NC(=O)c1ccc(Cl)cc1)NC(=NC#N)Nc1cccnc1 (stereo not drawn) [Example 94, 4-chloro-N-(1-{[(cyanoimino)(3-pyridinylamino)methyl]amino}-2,2-dimethylhexyl)benzamide] |  |  |  | 82% | EC50 ([2]; Cavia porcellus): 160 nM |
|  |  | C=CCOCC(CC)(COCC=C)C(NC(=O)c1ccc(Cl)cc1)NC(=NC#N)Nc1cccnc1 (stereo not drawn) [Example 96, N-(2,2-bis[(allyloxy)methyl]-1-{[(cyanoimino)(3-pyridinylamino)methyl]amino}butyl)-4-chlorobenzamide] |  |  |  | 93% | EC50 ([2]; Cavia porcellus): 240 nM |
|  |  | CC(Cl)(Cl)C(NC(=O)c1ccc(Cl)cc1)NC(=NC#N)Nc1ccc(F)nc1 (stereo not drawn) [Example 180, 4-chloro-N-[2,2-dichloro-1-({(cyanoimino)[(6-fluoro-3-pyridinyl)amino]methyl}amino)propyl]benzamide] | 0.040 |  | 98% |  | EC50 ([1]; Sus scrofa): 2.3 µM |
|  |  | CC(C)(C)CC(NC(=O)c1ccc(Br)cc1)NC(=NS(=O)(=O)C(F)(F)F)Nc1cccnc1 (stereo not drawn) [Example 188, 4-bromo-N-{3,3-dimethyl-1-[((3-pyridinylamino){[(trifluoromethyl)sulfonyl]imino}methyl)amino]butyl}benzamide] | 0.020 |  | 87% |  | EC50 ([1]; Sus scrofa): 10 µM |
|  |  | CC(C)(C)CC(NC(=O)c1ccc(C(F)(F)F)cc1)NC(=NS(=O)(=O)C(F)(F)F)Nc1cccnc1 (stereo not drawn) [Example 189, N-{3,3-dimethyl-1-[((3-pyridinylamino){[(trifluoromethyl)sulfonyl]imino}methyl)amino]butyl}-4-(trifluoromethyl)benzamide] | 0.078 |  | 66% |  | EC50 ([1]; Sus scrofa): 0.93 µM |
|  |  | CC(Cl)(Cl)C(NC(=O)c1cccs1)NC(=NC#N)Nc1ccc(Cl)nc1 (stereo not drawn) [Example 192, N-(2,2-dichloro-1-{[[(6-chloro-3-pyridinyl)amino](cyanoimino)methyl]amino}propyl)-2-thiophenecarboxamide] | 0.019 |  | 99% |  | EC50 ([1]; Sus scrofa): 3.1 µM |
|  |  | CCC(C)(C)N=C(NC#N)Nc1cccnc1 [Example P1075, reference compound] |  |  |  |  | stimulated twitch / stimulated contractions of the bladder ([1]; P1075: 10^−9 to 10^−5 M, cumulative, ½ log increments): completely eliminated the stimulated twitch |
